pIC50: −log10 of the molar value. Where a name gives a salt, the structure may show the parent alone.
How the values were obtained:
CDK1/cyclinB = biological target: T1, CDK1/cyclinB (Homo sapiens, UniProt P06493); experiment: Inhibition of CDK enzyme activity (ADP-Glo kinase assay); type: biochemical; conditions: 10 uM ATP, histone H1 substrate
T1 construct: purchased Merck Millipore
Description: (§1) Test compounds were prepared by dissolving the compounds obtained in the above Examples in dimethylsulfoxide (DMSO) at a concentration of 10 mM. The test compounds were diluted to 200 nM, 50 nM, […], 3.13 nM, 0.78 nM, and 0.2 nM and used in an enzyme reaction.
(§2) CDK enzyme reaction was conducted in a buffer containing 50 mM Tris-HCl (pH 7.5), 10 mM MgCl2, 1 mM EGTA, 1 mM EDTA, and 2 mM DTT. CDK1/cyclinB, CDK2/cylcinE, CDK5/p25, and CDK6/cyclinD3 enzymes commercially available from Merck Millipore were used for CDK1, CDK2, CDK5, and CDK6 enzymes, respectively, and CDK4/cyclinD1 enzyme commercially available from Signalchem (US) was used for CDK4. For CDK1, a reaction proceeded by adding 10 nM CDK1/cyclinB and 0.125 mg/ml histone H1 (Merck Millipore) substrate to the buffer and then adding 10 uM ATP thereto. For CDK2, a reaction was proceeded by adding 10 nM CDK2/cyclinE and 0.125 mg/ml histone H1 substrate to the buffer and then adding 10 uM ATP thereto. For CDK5, a reaction was proceeded by adding 10 nM CDK5/p25 and 0.125 mg/ml histone H1 substrate to the buffer and then adding 10 uM ATP thereto. For CDK4, a reaction was proceeded by adding 20 nM CDK4/cyclinD1 and 0.125 mg/ml Rb protein (Merck Millipore) to the buffer and then adding 10 uM ATP thereto. For CDK6, a reaction was proceeded by adding 50 nM CDK6/cyclinD3 and 0.125 mg/ml histone H1 substrate to the buffer and then adding 10 uM ATP thereto. Each enzyme reaction was incubated at 30° C. for 60 min. Then, the amount of ADP produced was measured using Victor X4 instrument (Perkin Elmer) after generating luminescence using ADP-Glo kinase assay kit (Promega, US). An inhibition effect on each enzyme was represented as a percentage of the luminescence value in the presence of the test compounds relative to the luminescence value without the test compounds. IC50 (nM) is the concentration of the compound to inhibit 50% of the enzyme activity.

CDK4/cyclinD1 = biological target: T2, CDK4/cyclinD1 (Homo sapiens, UniProt P11802); experiment: as above; type: biochemical; conditions: 10 uM ATP, Rb protein substrate; read-out: IC50 CDK4/cyclinD
T2 construct: purchased Signalchem (US)
T2 sequence (P11802 whole entry): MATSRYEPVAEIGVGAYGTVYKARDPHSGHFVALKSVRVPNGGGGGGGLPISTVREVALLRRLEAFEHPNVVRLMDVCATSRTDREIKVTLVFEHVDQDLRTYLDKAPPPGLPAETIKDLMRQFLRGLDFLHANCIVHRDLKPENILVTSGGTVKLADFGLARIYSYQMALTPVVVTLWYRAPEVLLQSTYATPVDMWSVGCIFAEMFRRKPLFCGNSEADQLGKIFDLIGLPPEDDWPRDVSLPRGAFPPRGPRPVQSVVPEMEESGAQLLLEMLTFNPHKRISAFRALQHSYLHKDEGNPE
T2 sequence (P24385 whole entry partner): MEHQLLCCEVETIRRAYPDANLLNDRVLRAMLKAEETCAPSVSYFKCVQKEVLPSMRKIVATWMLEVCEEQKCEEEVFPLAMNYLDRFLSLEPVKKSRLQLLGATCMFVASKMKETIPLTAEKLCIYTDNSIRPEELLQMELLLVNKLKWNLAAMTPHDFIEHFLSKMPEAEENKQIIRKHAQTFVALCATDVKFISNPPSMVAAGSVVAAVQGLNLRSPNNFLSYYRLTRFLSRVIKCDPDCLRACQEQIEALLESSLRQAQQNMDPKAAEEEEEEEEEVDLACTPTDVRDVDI
Description: as §1, §2

CDK6/cyclinD3 = biological target: T3, CDK6/cyclinD3 (Homo sapiens, UniProt Q00534); experiment: as above; type: biochemical; conditions: 10 uM ATP, histone H1 substrate; read-out: IC50 CDK6/cyclinD
T3 construct: purchased Merck Millipore
T3 sequence (Q00534 whole entry): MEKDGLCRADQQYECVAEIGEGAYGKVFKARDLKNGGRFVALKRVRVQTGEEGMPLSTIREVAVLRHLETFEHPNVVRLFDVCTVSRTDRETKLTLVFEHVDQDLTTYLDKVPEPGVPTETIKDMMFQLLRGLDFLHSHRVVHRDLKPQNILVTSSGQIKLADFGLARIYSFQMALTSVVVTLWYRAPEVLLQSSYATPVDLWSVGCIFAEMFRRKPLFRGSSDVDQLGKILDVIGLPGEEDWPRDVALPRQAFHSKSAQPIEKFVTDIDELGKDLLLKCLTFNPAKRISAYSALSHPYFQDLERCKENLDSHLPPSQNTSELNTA
T3 sequence (P30281 whole entry partner): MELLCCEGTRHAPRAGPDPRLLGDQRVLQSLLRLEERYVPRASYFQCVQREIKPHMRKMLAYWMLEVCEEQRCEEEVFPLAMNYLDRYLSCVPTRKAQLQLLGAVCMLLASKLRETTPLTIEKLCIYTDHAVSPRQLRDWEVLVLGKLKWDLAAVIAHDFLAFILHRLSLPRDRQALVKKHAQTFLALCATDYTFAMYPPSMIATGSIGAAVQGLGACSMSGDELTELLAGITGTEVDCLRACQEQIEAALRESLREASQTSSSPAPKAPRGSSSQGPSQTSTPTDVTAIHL
Description: as §1, §2

CDK5/p25 = biological target: T4, CDK5/p25 (Homo sapiens, UniProt Q00535); experiment: as above; type: biochemical; conditions: 10 uM ATP, histone H1 substrate
T4 construct: purchased Merck Millipore
T4 sequence (Q00535 whole entry): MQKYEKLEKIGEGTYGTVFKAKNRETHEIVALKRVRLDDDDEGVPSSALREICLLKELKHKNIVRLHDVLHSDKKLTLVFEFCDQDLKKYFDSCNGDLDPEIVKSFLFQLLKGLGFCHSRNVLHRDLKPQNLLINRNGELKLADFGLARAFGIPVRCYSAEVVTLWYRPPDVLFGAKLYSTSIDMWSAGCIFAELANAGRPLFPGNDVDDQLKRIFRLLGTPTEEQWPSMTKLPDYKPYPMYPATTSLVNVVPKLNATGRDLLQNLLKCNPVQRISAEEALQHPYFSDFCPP
T4 sequence (Q15078 99-307 partner limits assumed): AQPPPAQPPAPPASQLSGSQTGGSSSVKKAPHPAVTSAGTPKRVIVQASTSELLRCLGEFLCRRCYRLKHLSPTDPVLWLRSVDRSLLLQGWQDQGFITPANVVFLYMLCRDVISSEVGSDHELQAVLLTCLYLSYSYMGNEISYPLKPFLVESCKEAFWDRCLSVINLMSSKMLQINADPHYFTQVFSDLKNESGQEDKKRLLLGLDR
Description: as §1, §2

CDK2/cyclinE = biological target: T5, CDK2/cyclinE (Homo sapiens, UniProt P24941); experiment: as above; type: biochemical; conditions: 10 uM ATP, histone H1 substrate
T5 construct: purchased Merck Millipore
Description: as §1, §2

HCT116 = experiment: Inhibition of cancer cell proliferation (MTT); type: cell-based, human
Description: (§3) A test was conducted to confirm whether the compounds obtained in the above Examples can inhibit proliferation of human colon carcinoma cell line HCT116, glioblastoma cell lines U-87MG and T98G, neuroblastoma cell lines SH-SYSY and SK-N-SH, and lung cancer cell lines A549 and NCI-H23.
(§4) HCT116, U-87MG, SH-SYSY, SK-N-SH and A549 cells were culured in DMEM medium containing 10% FBS. T98G cells were cultured in MEM medium containing 10% FBS and NCI-H23 cells were cultured in […] medium containing 10% FBS. In order to analyze an inhibition of proliferation, HCT116 cells were dispensed in 2000 cells/well into 96 well plate, and SH-SYSY, SK-N-SH, U-87MG, T98G, A549, and NCI-H23 cells were dispensed in 3000 cells/well into 96 well plate. And then, the cells were cultured at 5% CO2 and 37° C. for 16 hrs to allow the cells to attach to the wells. The compounds of the above Examples were added to each well at a concentration of 0.004, 0.013, 0.04, 0.12, 0.37, 1.1, 3.3, and 10 uM, and the culture volume was adjusted to 100 ul. A control group was treated with dimethylsulfoxide (DMSO) at the same concentration, 0.08%, as used to treat the test compounds. Afterwards, cells were cultured at 5% CO2 and 37° C. for 72 hrs. And then, 10 ul of the solution of MTT (3-(4,5-dimethylthiazol-2-yl)-2,5-diphenyltetrazolium bromide) dissolved in PBS at 5 mg/ml was added to each well to identify viable cells and the cells were cultured for further 2 hrs. The culture solution was removed, 100 ul of DMSO was added to dissolve the formed formazan and then an absorbance was measured at 535 nm. Based on the absorbance of the control cells not treated with the compounds, the amounts of the viable cells according to the concentration of the compounds were calculated. GI50 (growth inhibition 50) value which is the concentration of the compound to inhibit cancer cell proliferation by 50% was calculated using Graphpad Prism 5.0 program.

A549 = experiment: Inhibition of cancer cell proliferation (MTT); type: cell-based, human
Description: as §3, §4

NCI-H23 = experiment: Inhibition of cancer cell proliferation (MTT); type: cell-based, human
Description: as §3, §4

U-87MG = experiment: Inhibition of cancer cell proliferation (MTT); type: cell-based, human
Description: as §3, §4

T98G = experiment: Inhibition of cancer cell proliferation (MTT); type: cell-based, human
Description: as §3, §4

T1 sequence (P06493 whole entry): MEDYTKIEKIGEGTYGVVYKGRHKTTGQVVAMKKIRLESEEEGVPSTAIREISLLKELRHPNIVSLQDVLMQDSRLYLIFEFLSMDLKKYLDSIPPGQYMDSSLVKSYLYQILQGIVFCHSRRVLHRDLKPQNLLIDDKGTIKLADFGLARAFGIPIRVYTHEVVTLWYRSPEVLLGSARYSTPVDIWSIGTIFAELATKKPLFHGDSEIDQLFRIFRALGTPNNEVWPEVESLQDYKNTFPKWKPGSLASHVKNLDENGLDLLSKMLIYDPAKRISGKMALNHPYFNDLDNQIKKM
T1 sequence (P14635 whole entry partner): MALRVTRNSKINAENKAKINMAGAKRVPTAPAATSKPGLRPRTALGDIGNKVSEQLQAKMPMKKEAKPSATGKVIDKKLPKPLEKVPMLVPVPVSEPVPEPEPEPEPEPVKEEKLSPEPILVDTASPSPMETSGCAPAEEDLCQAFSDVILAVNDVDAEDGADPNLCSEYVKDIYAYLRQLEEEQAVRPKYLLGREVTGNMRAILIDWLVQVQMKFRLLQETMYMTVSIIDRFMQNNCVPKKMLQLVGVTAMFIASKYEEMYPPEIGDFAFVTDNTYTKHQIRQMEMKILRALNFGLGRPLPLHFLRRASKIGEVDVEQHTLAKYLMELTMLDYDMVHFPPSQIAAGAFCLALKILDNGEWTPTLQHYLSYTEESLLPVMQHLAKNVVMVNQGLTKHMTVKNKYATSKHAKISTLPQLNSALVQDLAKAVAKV

Row | Structure (SMILES) | pIC50 (CDK1/cyclinB) | pIC50 (CDK4/cyclinD1) | pIC50 (CDK6/cyclinD3) | pIC50 (CDK5/p25) | pIC50 (CDK2/cyclinE) | GI50 (HCT116; Homo sapiens, HCT-116, 72 h) | GI50 (A549; Homo sapiens, A549, 72 h) | GI50 (NCI-H23; Homo sapiens, NCI-H23, 72 h) | GI50 (U-87MG; Homo sapiens, U-87 MG, 72 h) | GI50 (T98G; Homo sapiens, T98G, 72 h) | GI50 (T98G; 72 hrs) | GI50 (A549; 72 hrs) | GI50 (U-87MG; 72 hrs) | GI50 (NCI-H23; 72 hrs) | GI50 (HCT116; 72 hrs)
1 | Cc1cc(-c2nc(-c3ccnc(N)c3F)ccc2O)nc(N)n1 [Example 24, 2′-amino-6-(2-amino-6-methylpyrimidin-4-yl)-3′-fluoro-[2,4′-bipyridin]-5-ol] | 9.22 | 6.47 | 7.47 | 9.15 | 9.05 | 20 nM |  |  |  |  |  |  |  |  | 
2 | CC(C)c1cc(-c2nc(-c3ccnc(N)c3F)ccc2O)nc(N)n1 [Example 31, 2′-amino-6-(2-amino-6-isopropylpyrimidin-4-yl)-3′-fluoro-[2,4′-bipyridin]-5-ol] | 8.64 | 7.44 | 7.21 | 8.50 | 9.23 | 30 nM | 180 nM | 100 nM |  |  |  |  |  |  | 
3 | CN1CCN(c2cc(-c3nc(-c4ccnc(N)c4F)ccc3O)nc(N)n2)CC1 [Example 53, 2′-amino-6-(2-amino-6-(4-methylpiperazin-1-yl)pyrimidin-4-yl)-3′-fluoro-[2,4′-bipyridin]-5-ol] | 8.40 | < 6.70 | 7.06 | 8.55 | 7.97 | 10 nM | 20 nM | 40 nM | 30 nM |  |  |  |  |  | 
4 | CN1CCCC(c2cc(-c3nc(-c4ccnc(N)c4F)ccc3O)nc(N)n2)C1 (stereo not drawn) [Example 38, 2′-amino-6-(2-amino-6-(1-methylpiperidin-3-yl)pyrimidin-4-yl)-3′-fluoro-[2,4′-bipyridin]-5-ol] |  |  |  |  |  | 2 nM | 5 nM | 20 nM | 4 nM | 20 nM |  |  |  |  | 
5 | CNc1nc(-c2nc(-c3ccnc(N)c3F)ccc2O)cc(C2CCN(C)CC2)n1 [Example 59, 2′-amino-3′-fluoro-6-(2-(methylamino)-6-(1-methylpiperidin-4-yl)pyrimidin-4-yl)-[2,4′-bipyridin]-5-ol] |  |  |  |  |  | 40 nM | 70 nM | 130 nM | 70 nM | 110 nM |  |  |  |  | 
6 | CN(C)c1cc(-c2nc(-c3ccnc(N)c3F)ccc2O)nc(N)n1 [Example 52, 2′-amino-6-(2-amino-6-(dimethylamino)pyrimidin-4-yl)-3′-fluoro-[2,4′-bipyridin]-5-ol] | 9.15 | 7.20 | 7.22 | 8.72 | 7.84 | 10 nM | 20 nM | 30 nM |  |  |  |  |  |  | 
7 | Nc1nc(-c2nc(-c3ccnc(N)c3F)ccc2O)cc(C2CCOCC2)n1 [Example 32, 2′-amino-6-(2-amino-6-(tetrahydro-2H-pyran-4-yl)pyrimidin-4-yl)-3′-fluoro-[2,4′-bipyridin]-5-ol] |  |  |  |  |  | 30 nM | 80 nM | 190 nM | 100 nM | 110 nM |  |  |  |  | 
8 | Cc1nc(N)nc(-c2nc(-c3ccnc(N)c3F)ccc2O)c1C [Example 101, 2′-amino-6-(2-amino-5,6-dimethylpyrimidin-4-yl)-3′-fluoro-[2,4′-bipyridin]-5-ol 3hydrochloride] |  |  |  |  |  |  |  |  |  |  | 290 nM | 120 nM | 230 nM | 230 nM | 60 nM
9 | Nc1nc(-c2nc(-c3ccnc(N)c3F)ccc2O)cc(C2CCNCC2)n1 [Example 83, 2′-amino-6-(2-amino-6-(piperidin-4-yl)pyrimidin-4-yl)-3′-fluoro-[2,4′-bipyridin]-5-ol 4hydrochloride] |  |  |  |  |  |  |  |  |  |  | 150 nM | 120 nM | 90 nM | 1180 nM | 30 nM
10 | CCCc1cnc(N)nc1-c1nc(-c2ccnc(N)c2F)ccc1O [Example 103, 2′-amino-6-(2-amino-5-propylpyrimidin-4-yl)-3′-fluoro-[2,4′-bipyridin]-5-ol 3hydrochloride] |  |  |  |  |  |  |  |  |  |  | 10 nM | 10 nM | 10 nM | 20 nM | 10 nM
11 | CN1CCC(c2cc(-c3nc(-c4ccnc(N)c4F)ccc3O)nc(N)n2)CC1 [Example 77, 2′-amino-6-(2-amino-(6-(1-methylpiperidin-4-yl)pyrimidin-4-yl)-3′-fluoro-[2,4′-bipyridin]-5-ol 4hydrochloride] |  |  |  |  |  |  |  |  |  |  | 30 nM | 10 nM | 10 nM | 30 nM | 3 nM

Next, values leading:

Row | pIC50 (CDK1/cyclinB) | pIC50 (CDK4/cyclinD1) | pIC50 (CDK6/cyclinD3) | pIC50 (CDK5/p25) | pIC50 (CDK2/cyclinE) | GI50 (HCT116; Homo sapiens, HCT-116, 72 h) | GI50 (A549; Homo sapiens, A549, 72 h) | GI50 (NCI-H23; Homo sapiens, NCI-H23, 72 h) | GI50 (U-87MG; Homo sapiens, U-87 MG, 72 h) | GI50 (T98G; Homo sapiens, T98G, 72 h) | GI50 (T98G; 72 hrs) | GI50 (A549; 72 hrs) | GI50 (U-87MG; 72 hrs) | GI50 (NCI-H23; 72 hrs) | GI50 (HCT116; 72 hrs) | Structure (SMILES)
12 |  |  |  |  |  | 90 nM | 150 nM | 400 nM | 100 nM | 160 nM |  |  |  |  |  | Cc1c(-c2nc(-c3ccnc(N)c3F)ccc2O)nc(N)nc1C1CCN(C(C)C)CC1 [Example 45, 2′-amino-6-(2-amino-6-(1-isopropylpiperidin-4-yl)-5-methylpyrimidin-4-yl)-3′-fluoro-[2,4′-bipyridin]-5-ol]
13 |  |  |  |  |  | 810 nM | 1440 nM | 2230 nM | 1090 nM | 1410 nM |  |  |  |  |  | CCCN1CCCC(c2nc(N)nc(-c3nc(-c4ccnc(N)c4F)ccc3O)c2C)C1 (stereo not drawn) [Example 47, 2′-amino-6-(2-amino-5-methyl-6-(1-propylpiperidin-3-yl)pyrimidin-4-yl)-3′-fluoro-[2,4′-bipyridin]-5-ol]
14 |  |  |  |  |  |  |  |  |  |  | 160 nM | 80 nM | 100 nM | 150 nM | 60 nM | CCCN1CCC(c2nc(N)nc(-c3nc(-c4ccnc(N)c4F)ccc3O)c2C)CC1 [Example 95, 2′-amino-6-(2-amino-5-methyl-6-(1-propylpiperidin-4-yl)pyrimidin-4-yl)-3′-fluoro-[2,4′-bipyridin]-5-ol 4hydrochloride]
15 |  |  |  |  |  |  |  |  |  |  | 400 nM | 380 nM | 270 nM | 890 nM | 180 nM | Cc1c(-c2nc(-c3ccnc(N)c3F)ccc2O)nc(N)nc1C1CCN(C)CC1 [Example 42, 2′-amino-6-(2-amino-5-methyl-6-(1-methylpiperidin-4-yl)pyrimidin-4-yl)-3′-fluoro-[2,4′-bipyridin]-5-ol]
16 |  |  |  |  |  |  |  |  |  |  | 160 nM | 160 nM | 120 nM | 290 nM | 110 nM | Cc1c(-c2nc(-c3ccnc(N)c3F)ccc2O)nc(N)nc1C1CCCN(C)C1 (stereo not drawn) [Example 97]
17 |  |  |  |  |  | 40 nM |  | 160 nM | 70 nM | 130 nM |  | 150 nM |  |  |  | CCCc1c(-c2nc(-c3ccnc(N)c3F)ccc2O)nc(N)nc1C1CCN(C(C)C)CC1 [Example 50, 2′-amino-6-(2-amino-6-(1-isopropylpiperidin-4-yl)-5-propylpyrimidin-4-yl)-3′-fluoro-[2,4′-bipyridin]-5-ol]

Reference: patent publication US20200190062A1, “HETEROCYCLIC COMPOUND AND PHARMACEUTICAL COMPOSITION COMPRISING SAME” (BEYONDBIO INC., priority 2015, published 2020)
